Experimental data from patent publication US7951382B2, “Methods for treatment of type 2 diabetes” (American Type Culture Collection, priority 2006, dated 2011).
Entries after “also recorded” stand apart in the source; their conditions may differ.

Legend:
kinases = kinases (Homo sapiens, UniProt P15056, V600E); assay: Invitrogen SelectScreen biochemical kinase profiling, Z'-LYTE assay; details: kinase BRAF V599E
Source text: The Z′-LYTE® biochemical assay employs a fluorescence-based, coupled-enzyme format and is based on the differential sensitivity of phosphorylated and non-phosphorylated peptides to proteolytic cleavage. The peptide substrate is labeled with two fluorophores—one at each end—that make up a FRET pair. In the primary reaction, the kinase transfers the gamma-phosphate of ATP to a single tyrosine, serine or threonine residue in a synthetic FRET-peptide. In the secondary reaction, a site-specific protease recognizes and cleaves non-phosphorylated FRET-peptides. Phosphorylation of FRET-peptides suppresses cleavage by the Development Reagent. Cleavage disrupts FRET between the donor (i.e., coumarin) and acceptor (i.e., fluorescein) fluorophores on the FRET-peptide, whereas uncleaved, phosphorylated FRET-peptides maintain FRET.
Both cleaved and uncleaved FRET-peptides contribute to the fluorescence signals and therefore to the Emission Ratio. The extent of phosphorylation of the FRET-peptide can be calculated from the Emission Ratio.
Test Compounds are screened in 1% DMSO (final) in the well. […] All ATP Solutions are diluted to a 4× working concentration in Kinase Buffer (50 mM HEPES pH 7.5, 0.01% BRIJ-35, 10 mM MgCl2, 1 mM EGTA). ATP Km apparent is previously determined using a Z′-LYTE® assay.
This control yields 100% cleaved peptide in the Development Reaction. […]

[1] = system: STZ-induced diabetic C57BL/6 mice; assay: Multiple low dose streptozotocin (STZ)-induced murine model of Diabetes, efficacy of D3 peptide; assay type: in vivo, male C57BL/6 mice; details: for mortality / survival during the course of the study: experiment 1, to day 36, FIG. 15
Experimental: Peptide treatment also delayed the onset of Diabetes (mean blood glucose levels≧300 mg/dL) by approximately 14 days, and reduced peak BG levels by 40% (p<0.01) in treated animals. This naturally occurring peptide may represent a safer alternative to small molecule kinase inhibitors for the control of IDDM and associated complications.
Streptozotocin (Streptozocin, STZ, Zanosar) is a naturally occurring glucosamine-nitrosourea compound that is toxic to insulin producing beta cells in the pancreas. This alkylating agent bears enough similarity to the molecular structure of glucose to be readily transported into beta cells by the highly abundant glucose GLU2 glucose transporter protein. Once inside the cell STZ causes damage to the DNA, resulting in a loss of cellular function.
Twenty five male C57BL/6 mice aged approximately 6 weeks were randomized into 3 groups of 10, 10 and 5 animals. Beginning on day −6, non-fasting blood glucose (BG) levels for all animals were determined twice weekly using an Ascencia Contour blood glucose reader (Beyer). […] Groups 1 and 3 were intraperitoneally administered 200 μl sterile water alone. Injections continued in a similar fashion every 3 days for the duration of the experiment. Beginning on day 0, Groups 2 and 3 also received 50 mg/kg of STZ in 200 μl of sterile water via the intraperitoneal route for 5 consecutive days. Group 1 animals received a mock intraperitoneal injection of 200 μl of sterile water during the same period (see Table 17). Animals were allowed access to food and water ad libitum and this treatment schedule was followed until day 36.
In experiment 1, animals were fed normal mouse chow for the duration of the experiment and a fresh vial of STZ was used. Blood glucose measurements for each individual animal were recorded twice weekly for the duration of the experiment. The blood glucose levels in the non diabetic control animals remained stable at approximately 150 mg/dl. However, immediately following the administration of STZ to the two experimental groups, blood glucose levels increased steadily over time and reached a maximum at approximately day 15. No difference in blood glucose levels were observed between D3 treated and untreated STZ-induced animals.
For the duration of the experiment, the mean blood glucose level of normal control animals was approximately 150 mg/dl. For the purposes of this study, a blood glucose reading in STZ-induced animals more than 2-fold higher than normal (i.e. ≧300 mg/dl) was considered to indicate a diabetic animal. Using this criterion, the incidence and time to onset of diabetes in the treated and untreated STZ groups was determined. […] For both STZ groups, the onset of Diabetes began as early as day 4 post STZ administration. All of the untreated STZ animals were classed as diabetic by day 10.
In experiment 2, animals were fed a high carbohydrate diet (˜50% sucrose) for the duration of the experiment. An older stock vial of STZ was used. Blood glucose measurements for each individual animal were recorded twice weekly for the duration of the experiment. As expected, the blood glucose levels in the non diabetic control animals remained below 150 mg/dl. […] This trend was maintained for the entire duration of the experiment.
For the duration of the experiment, the mean blood glucose level of normal control animals was approximately 150 mg/dl. For the purposes of this study, a blood glucose reading in STZ-induced animals more than 2-fold higher than normal (i.e. ≧300 mg/dl) was considered to indicate a diabetic animal. Using this criterion, the incidence and time to onset of Diabetes in the treated and untreated STZ groups was determined. […] For the untreated STZ group, Diabetes onset began as early as day 8 post STZ administration, and 100% of animals were diabetic by day 18. […] By day 36 only 70% of animals in the D3 treated group were classified as diabetic. […]

[2] = system: 12 Kinases (kinases involved in insulin receptor signaling pathways); assay: NovaScreen ProfilerPro kinase panel / screen of 59 receptors and enzymes at 1 μM; assay type: biochemical; details: D3 peptide 1 μM, preliminary results
Experimental: (§1) Kinase assays were performed using the ProfilerPro kinase panel kit available from NovaScreen and were validated using the KinaseProfiler enzyme panel available from Millipore.

[3] = system: 12 Kinases (kinases involved in insulin receptor signaling pathways); assay: Millipore KinaseProfiler enzyme panel; assay type: biochemical; details: D3 peptide 0.1 uM and 1 uM, same 12 kinases
Experimental: as §1

[4] = experiment 1, normal mouse chow, fresh vial of STZ
[5] = experiment 2, high carbohydrate diet

Chain of kinases (P15056 whole entry V600E): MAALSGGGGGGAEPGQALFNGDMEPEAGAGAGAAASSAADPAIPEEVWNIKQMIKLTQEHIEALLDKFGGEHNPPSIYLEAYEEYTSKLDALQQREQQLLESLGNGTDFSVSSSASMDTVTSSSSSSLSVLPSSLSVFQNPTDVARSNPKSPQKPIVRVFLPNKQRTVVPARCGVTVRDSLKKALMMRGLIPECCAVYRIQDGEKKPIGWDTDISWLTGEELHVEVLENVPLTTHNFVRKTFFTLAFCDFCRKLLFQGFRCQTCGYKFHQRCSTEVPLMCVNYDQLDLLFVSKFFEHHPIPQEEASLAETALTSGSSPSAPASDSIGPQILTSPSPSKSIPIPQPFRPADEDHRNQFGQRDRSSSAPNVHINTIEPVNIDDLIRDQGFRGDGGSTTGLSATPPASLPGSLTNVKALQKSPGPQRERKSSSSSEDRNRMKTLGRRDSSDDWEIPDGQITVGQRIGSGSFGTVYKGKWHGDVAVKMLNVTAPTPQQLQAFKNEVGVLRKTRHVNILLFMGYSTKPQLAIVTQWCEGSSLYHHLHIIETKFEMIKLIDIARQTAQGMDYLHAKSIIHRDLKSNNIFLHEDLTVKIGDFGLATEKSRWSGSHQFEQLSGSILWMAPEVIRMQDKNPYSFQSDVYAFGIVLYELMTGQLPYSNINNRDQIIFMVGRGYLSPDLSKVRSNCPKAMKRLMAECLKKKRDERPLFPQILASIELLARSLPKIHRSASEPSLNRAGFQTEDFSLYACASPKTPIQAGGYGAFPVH

SGRPPMIVWFNRPFLIAVSHTHGQTILFMAKVINPVGA [D3 peptide, SGRPPMIVWFNRPFLIAVSHTHGQTILFMAKVINPVGA]
% Inhibition mean (kinases): 99.79% | reduction of peak BG levels ([1]; 36-day prophylactic study, STZ-induced male C57BL/6 mice, 1 mg/kg every 3 days, p<0.01): 40% | delay of the onset of Diabetes (mean blood glucose levels≧300 mg/dL) ([1]; 36-day prophylactic study, STZ-induced male C57BL/6 mice, 1 mg/kg of D3 peptide every 3 days): approximately 14 days | time to onset or rate of disease compared to untreated diabetic controls ([1]; FIG. 14, STZ treated animals (experiment 1)): No significant differences | blood glucose levels, D3 treated versus untreated STZ-induced animals [1, 4]: No difference | first signs of Diabetes (blood glucose ≧300 mg/dl), day post STZ administration [1, 4]: 4 days | rate of disease progression (slope of the graph) versus untreated STZ group [1, 4]: essentially similar | time to establish Diabetes in 100% of animals [1, 4]: 15 days | mortality / survival during the course of the study [1]: increases survival | mortality / survival during the course of the study ([1]; listed as D3): no mortality was observed | animals classified as diabetic by day 36 [1, 5]: 70% | deaths from diabetic complications or toxic events related to peptide or STZ treatment [1, 5]: No animals succumbed to diabetic complications or experienced any toxic events | delay of first signs of diabetes versus untreated animals [1, 5]: four | rate of disease progression (slope of the graph) [1, 5]: much less pronounced | mean blood glucose levels, D3 treated versus untreated STZ-induced animals ([1]; experiment 2, high carbohydrate diet (~50% sucrose), older stock vial of STZ, 36 days, FIG. 16): higher than those observed in diabetic animals treated with D3 peptide; also recorded: marked reduction | day on which significant differences (p≦0.05) in mean blood glucose versus untreated diabetic animals were first observed ([1]; experiment 2, high carbohydrate diet, D3 peptide every 3 days): 10 days | inhibition of kinases of the panel [2]: specific inhibition activities to 7 kinases | inhibition of kinases of the panel (confirmation) [3]: specific inhibition activity on 4 out of 7 kinases
